Laboratory results reported in BindingDB's records for doi:10.1016/j.bmc.2017.05.049 (Peking University, 2017).

What was measured:
[1] = Inhibition of trypsin-like activity of 20S proteasome in human HL60 cells using Z-LRRaminoluciferin as substrate pretreated for 2 hrs followed by substrate addition by […] assay
[2] = Inhibition of PGPH-like activity of 20S proteasome in human HL60 cells using Z-nLPnLDaminoluciferin as substrate pretreated for 2 hrs followed by substrate addition by […] assay

IC50 [1]: 1660 nM
IC50 [2]: 1250 nM
SMILES: CC(C)C[C@H](NC(=O)OCc1ccccc1)C(=O)N[C@@H](Cc1ccc2ccccc2c1)C(=O)N1CCC[C@H]1B(O)O
